Source: PubChem BioAssay AID1918952 (Molecular Pharmacology Branch, DTP, NCI, 2023)
Several values for one entry are separate records, joined by “and”; a condition that tells them apart may be missing. Equal entries are not always repeated.

System: LG0703-F948-PDC complex spheroid viability
Assay: Anticancer human tumor LG0703-F948-PDC patient-derived lung adenocarcinoma cell line growth inhibition
Conditions: for viability, T/C: stronger effect = lower value
From the text: Multicellular complex tumor spheroid response to LSD1 Inhibitor Iadademstat in combination with a variety of drugs and investigational agents in selected tumor cell lines
The current study was undertaken to assess response to LSD1 inhibitors in combination with standard-of-care drugs and investigational agents in solid tumor complex spheroid models as well as in the K-562 leukemia. Complex spheroids include a stromal component modeled by human endothelial cells (HUVEC) and fibroblasts modeled by human mesenchymal stem cells (MSCs). The concentration ranges selected for each drug and investigational agent were based upon clinically achievable concentrations if the clinical Cmax of the agent was known.
Compounds. The drugs and investigational agents used in this study are listed on Table 1. All of the agents used, including staurosporine (NSC755774) and gemcitabine (NSC613327), were obtained from the Developmental Therapeutics Program, NCI. FDA-approved anticancer drugs are available from the NCI at http://dtp.nci.nih.gov/branches/dscb/oncology_drugset_explanation.html. Drugs and investigational agents were >95% pure by proton nuclear magnetic resonance (NMR) and liquid chromatography/mass spectrometry (LC/MS). Stock solutions were prepared at 400x in DMSO, stored at -70 degrees C, and diluted in fresh medium prior to their use. The final concentration of DMSO in cell culture wells never exceeded 0.25% (v/v). The FDA-approved anticancer drug set is available from the Developmental Therapeutics Program at https://dtp.cancer.gov/organization/dscb/obtaining/available_plates.htm. All drugs and investigational agents were tested over a range starting from a high concentration at or near the clinical Cmax and decreasing in half-log increments. If the clinical Cmax for an agent had not been determined, the highest concentration tested was 10 microM.
Cell Lines. The patient-derived cancer cell (PDC) lines: 292921-168-R-J2-PDC, K24384-001-R-PDC, and 521955-158-R2-J5-PDC pancreatic carcinomas, 556581-035-R-J1 ovarian carcinoma, 324938-238-R-J1-PDC, 855422-203-R-J1-PDC and 883617-216-R-J1-PDC urothelial bladder carcinomas, 743489-274-T-PDC renal cell carcinoma, 138582-R-J1 Merkel cell tumor, K60290-347-R-J1 and K57222-313-R-J1-PDC glioblastomas, 653999-131-R-J2-PDC, LG0703-F948-PDC, and 349418-098-R-PDC non-small cell lung carcinomas, 885512-296-R-J2-PDC, 171881-019-R-J1-PDC breast carcinomas and 186277-243-T-J2-PDC and 233499-124-R-J2-PDC colon carcinomas were obtained from the NCI Patient-Derived Models Repository (PDMR, https://pdmr.cancer.gov). The established cell lines NCI/ADR-RES (RRID:CVCL_14520 and OVCAR-5 (RRID:CVCL_1628) ovarian carcinomas, 786-O (RRID:CVCL_1051) and A498 (RRID:CVCL_A498) renal cell carcinoma, NCI-H211 (ATCC, cat. CRL-5824; RRID:CVCL_1529), NCI-H196 (ATCC, cat. CRL-5823, RRID:CVCL_1509), SW 1271 (ATCC, cat. CRL-2177, RRID:CVCL_1716) and NCI-H1876 (ATCC, cat. CRL-5902, RRID:CVCL_1503) small cell lung carcinomas, MDA-MB-231 (RRID:CVCL_0062) and MDA-MB-468 (RRID:CVCL_0419)breast carcinomas (10-12). Pooled donor human umbilical vein endothelial cells (HUVEC, Lonza, cat. CC-2519) and human mesenchymal stem cells (hMSC, Lonza, cat. PT-2501) were purchased from Lonza (Walkersville, MD).
Cell Culture. All cells were maintained in an incubator at 37 degrees C and 5% CO2 with 95% humidity. The PDC lines were cultured according to standard operating procedures established by the NCI PDMR (https://pdmr.cancer.gov). Briefly all PDCs were thawed and cultured in Matrigel-coated flasks prepared with a working solution of 1X Ham's F-12 nutrient mix, without supplementation (Invitrogen, Waltham, MA, cat. 11765054), 100 U/mL penicillin-streptomycin (Invitrogen, cat. 15140122), and 2.5% Matrigel (Corning Inc., Corning, NY, cat. 354248) for the first three passages. […]

[1] = curve of first compound, second compound 0.1 µM
[2] = curve of first compound, second compound 0.316 µM
[3] = curve of first compound, second compound 1 µM
[4] = curve of first compound, second compound 3.16 µM
[5] = curve of first compound, second compound 10 µM
[6] = second compound 0.1 µM, first compound 0.000949 µM
[7] = second compound 0.1 µM, first compound 0.003 µM
[8] = second compound 0.1 µM, first compound 0.00949 µM
[9] = second compound 0.1 µM, first compound 0.03 µM
[10] = second compound 0.1 µM, first compound 0.0949 µM
[11] = second compound 0.1 µM, first compound 0.3 µM
[12] = second compound 0.316 µM, first compound 0.000949 µM
[13] = second compound 0.316 µM, first compound 0.003 µM
[14] = second compound 0.316 µM, first compound 0.00949 µM
[15] = second compound 0.316 µM, first compound 0.03 µM
[16] = second compound 0.316 µM, first compound 0.0949 µM
[17] = second compound 0.316 µM, first compound 0.3 µM
[18] = second compound 1 µM, first compound 0.000949 µM
[19] = second compound 1 µM, first compound 0.003 µM
[20] = second compound 1 µM, first compound 0.00949 µM
[21] = second compound 1 µM, first compound 0.03 µM
[22] = second compound 1 µM, first compound 0.0949 µM
[23] = second compound 1 µM, first compound 0.3 µM
[24] = second compound 3.16 µM, first compound 0.000949 µM
[25] = second compound 3.16 µM, first compound 0.003 µM
[26] = second compound 3.16 µM, first compound 0.00949 µM
[27] = second compound 3.16 µM, first compound 0.03 µM
[28] = second compound 3.16 µM, first compound 0.0949 µM
[29] = second compound 3.16 µM, first compound 0.3 µM
[30] = second compound 10 µM, first compound 0.000949 µM
[31] = second compound 10 µM, first compound 0.003 µM
[32] = second compound 10 µM, first compound 0.00949 µM
[33] = second compound 10 µM, first compound 0.03 µM
[34] = second compound 10 µM, first compound 0.0949 µM
[35] = second compound 10 µM, first compound 0.3 µM
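Further: spheroids exposed to agents for seven days before readout.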
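Wherever viability, T/C is given: 100% = DMSO vehicle control wells as normalization base.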

O=C(C=Cc1cccc(S(=O)(=O)Nc2ccccc2)c1)NO
viability, T/C (compound 0.00949 µM): 94.2% and 95.1% | viability, T/C (compound 0.03 µM): 90.9% and 90.4% | viability, T/C (compound 0.0949 µM): 43.7% and 43.1% | viability, T/C (compound 0.3 µM): 11.7% and 12.1% | viability, T/C (compound 0.949 µM): 1.64% and 1.58% | viability, T/C (compound 3 µM): 0.25% and 0.32% | IC50 (curve of compound): 83.8 nM and 82.8 nM

Nc1ncn(C2CC(O)C(CO)S2)c(=O)n1 (centres undefined) + NC1CCC(NC2CC2c2ccccc2)CC1
IC50 [1]: > 300 nM | IC50 [2]: > 300 nM | IC50 [3]: > 300 nM | IC50 [4]: > 300 nM | IC50 [5]: > 300 nM | viability, T/C [6]: 114% | viability, T/C [7]: 117% | viability, T/C [8]: 107% | viability, T/C [9]: 120% | viability, T/C [10]: 113% | viability, T/C [11]: 99.9% | viability, T/C [12]: 124% | viability, T/C [13]: 123% | viability, T/C [14]: 121% | viability, T/C [15]: 113% | viability, T/C [16]: 128% | viability, T/C [17]: 99.8% | viability, T/C [18]: 112% | viability, T/C [19]: 115% | viability, T/C [20]: 118% | viability, T/C [21]: 122% | viability, T/C [22]: 123% | viability, T/C [23]: 104% | viability, T/C [24]: 121% | viability, T/C [25]: 125% | viability, T/C [26]: 115% | viability, T/C [27]: 121% | viability, T/C [28]: 137% | viability, T/C [29]: 119% | viability, T/C [30]: 116% | viability, T/C [31]: 126% | viability, T/C [32]: 115% | viability, T/C [33]: 107% | viability, T/C [34]: 113% | viability, T/C [35]: 108%

Nc1ccn(C2OC(CO)C(O)C2(F)F)c(=O)n1 (centres undefined) + NC1CC1c1ccc(-c2cccc(O)c2)cc1
IC50 [1]: 12.6 nM | IC50 [2]: 74.2 nM | IC50 [3]: 100 nM | IC50 [4]: 145 nM | IC50 [5]: > 300 nM | viability, T/C [6]: 79% | viability, T/C [7]: 50.8% | viability, T/C [8]: 51.9% | viability, T/C [9]: 56.6% | viability, T/C [10]: 43.9% | viability, T/C [11]: 32.3% | viability, T/C [12]: 70.2% | viability, T/C [13]: 63.9% | viability, T/C [14]: 66.8% | viability, T/C [15]: 54% | viability, T/C [16]: 48.9% | viability, T/C [17]: 37.6% | viability, T/C [18]: 76.9% | viability, T/C [19]: 66.5% | viability, T/C [20]: 63.6% | viability, T/C [21]: 60.1% | viability, T/C [22]: 51.9% | viability, T/C [23]: 40.3% | viability, T/C [24]: 81.5% | viability, T/C [25]: 80.6% | viability, T/C [26]: 87.3% | viability, T/C [27]: 66% | viability, T/C [28]: 57.1% | viability, T/C [29]: 41.4% | viability, T/C [30]: 87% | viability, T/C [31]: 78.3% | viability, T/C [32]: 83.9% | viability, T/C [33]: 68.9% | viability, T/C [34]: 59% | viability, T/C [35]: 51.5%

CC1COCCN1c1cc(-c2ccnn2C)c2ccnc(-c3ccn[nH]3)c2n1 (centres undefined) + NC1CC1c1ccc(-c2cccc(O)c2)cc1
IC50 [1]: 37.4 nM | IC50 [2]: 44.4 nM | IC50 [3]: 49.1 nM | IC50 [4]: 43.7 nM | IC50 [5]: 46.3 nM | viability, T/C (second compound 0.1 µM, first compound 0.00316 µM): 80.4% | viability, T/C (second compound 0.1 µM, first compound 0.01 µM): 74.6% | viability, T/C (second compound 0.1 µM, first compound 0.0316 µM): 49.8% | viability, T/C (second compound 0.1 µM, first compound 0.1 µM): 32.7% | viability, T/C (second compound 0.1 µM, first compound 0.316 µM): 20.2% | viability, T/C (second compound 0.1 µM, first compound 1 µM): 7.17% | viability, T/C (second compound 0.316 µM, first compound 0.00316 µM): 85.5% | viability, T/C (second compound 0.316 µM, first compound 0.01 µM): 72.3% | viability, T/C (second compound 0.316 µM, first compound 0.0316 µM): 57.9% | viability, T/C (second compound 0.316 µM, first compound 0.1 µM): 33.9% | viability, T/C (second compound 0.316 µM, first compound 0.316 µM): 18.7% | viability, T/C (second compound 0.316 µM, first compound 1 µM): 6.39% | viability, T/C (second compound 1 µM, first compound 0.00316 µM): 73% | viability, T/C (second compound 1 µM, first compound 0.01 µM): 70.2% | viability, T/C (second compound 1 µM, first compound 0.0316 µM): 64.1% | viability, T/C (second compound 1 µM, first compound 0.1 µM): 27.9% | viability, T/C (second compound 1 µM, first compound 0.316 µM): 21.6% | viability, T/C (second compound 1 µM, first compound 1 µM): 6.68% | viability, T/C (second compound 3.16 µM, first compound 0.00316 µM): 80.8% | viability, T/C (second compound 3.16 µM, first compound 0.01 µM): 77% | viability, T/C (second compound 3.16 µM, first compound 0.0316 µM): 55.7% | viability, T/C (second compound 3.16 µM, first compound 0.1 µM): 31.4% | viability, T/C (second compound 3.16 µM, first compound 0.316 µM): 19.1% | viability, T/C (second compound 3.16 µM, first compound 1 µM): 6.21% | viability, T/C (second compound 10 µM, first compound 0.00316 µM): 91.1% | viability, T/C (second compound 10 µM, first compound 0.01 µM): 82.3% | viability, T/C (second compound 10 µM, first compound 0.0316 µM): 60.4% | viability, T/C (second compound 10 µM, first compound 0.1 µM): 28.6% | viability, T/C (second compound 10 µM, first compound 0.316 µM): 18.8% | viability, T/C (second compound 10 µM, first compound 1 µM): 8.21%

COc1ccc([C@@H](O)c2cc(-c3ncnc4cc(N5CCOCC5)ccc34)c(F)cc2Cl)nn1
viability, T/C (compound 0.0316 µM): 96.8% and 94.9% | viability, T/C (compound 0.1 µM): 95.5% and 89% | viability, T/C (compound 0.316 µM): 83.9% and 78.1% | viability, T/C (compound 1 µM): 64.1% and 62.8% | viability, T/C (compound 3.16 µM): 20.1% and 24% | viability, T/C (compound 10 µM): 3.89% and 4.14% | IC50 (curve of compound): 1400 nM and 1380 nM
